From publication PMC9904262, “Omics analysis of Mycobacterium tuberculosis isolates uncovers Rv3094c, an ethionamide metabolism-associated gene” (Communications Biology, 2023) come the findings set out here.

As usually defined, the stoichiometry N is a count of units in the complex or per binding partner.

The target in one data set is T1, EthA (Mycobacterium tuberculosis, UniProt P9WNF9).
T1 construct: N-terminal 6xHis tag kept (pET28a), expressed in intact E. coli BL21(DE3); not purified
The format is cell-based. Conditions: ethionamide 80 µg/ml (Methods), 37 °C, up to 6 h.

Data set [1] addresses T2, Rv3094c (Mycobacterium tuberculosis, UniProt O05773).
The target in data set [2] is T2, Rv3094c. The source holds these as a separate data set.
Data set [3] concerns the molecule itself. Kind of data set: crystal structure; crystals of apo-Rv3094c, Rv3094c-FMN and Rv3094c-FMN-ETH; 0.2 M sodium nitrate, 0.1 M Bis Tris propane pH 8.5, 20% PEG3350, 16 °C; multimeric state analysed with PDBePISA.

T2 sequence (O05773 entry or part of it): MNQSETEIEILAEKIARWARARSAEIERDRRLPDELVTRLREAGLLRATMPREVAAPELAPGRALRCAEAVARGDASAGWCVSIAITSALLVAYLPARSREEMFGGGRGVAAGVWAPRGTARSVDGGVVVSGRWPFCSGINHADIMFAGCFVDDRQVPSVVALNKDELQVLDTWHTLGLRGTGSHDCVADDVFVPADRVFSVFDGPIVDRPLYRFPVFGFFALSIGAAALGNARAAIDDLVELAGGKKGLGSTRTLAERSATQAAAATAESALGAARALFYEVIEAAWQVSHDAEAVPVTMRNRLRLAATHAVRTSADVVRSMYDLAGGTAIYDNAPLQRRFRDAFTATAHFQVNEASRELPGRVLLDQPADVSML
T1 sequence (P9WNF9 whole entry): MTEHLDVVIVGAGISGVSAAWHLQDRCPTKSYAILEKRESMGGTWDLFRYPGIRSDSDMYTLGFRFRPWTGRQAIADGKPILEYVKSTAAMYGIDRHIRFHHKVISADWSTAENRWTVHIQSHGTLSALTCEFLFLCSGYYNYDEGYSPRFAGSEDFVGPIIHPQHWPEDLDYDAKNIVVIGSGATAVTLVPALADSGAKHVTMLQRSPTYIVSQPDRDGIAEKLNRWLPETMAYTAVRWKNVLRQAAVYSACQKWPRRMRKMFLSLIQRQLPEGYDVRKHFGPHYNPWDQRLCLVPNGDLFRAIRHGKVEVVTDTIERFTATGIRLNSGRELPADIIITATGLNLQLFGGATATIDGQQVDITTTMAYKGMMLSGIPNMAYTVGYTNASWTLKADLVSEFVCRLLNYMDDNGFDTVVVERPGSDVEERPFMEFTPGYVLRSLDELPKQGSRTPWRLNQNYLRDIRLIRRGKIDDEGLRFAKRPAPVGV

Consider `CCc1cc(C(N)=S=O)ccn1` [ETH-SO], for which the “HPLC-UV of E. coli culture supernatant, LC-MS/MS” value was “We synthesized an ETH-SO standard, and confirmed the new peak to be ETH-SO” on EthA; “We synthesized an ETH-SO standard, and confirmed the new peak to be ETH-SO” on Rv3094c [1].
As for `CCc1cc(C(N)=S)ccn1` [ethionamide], the “HPLC-UV of E. coli culture supernatant, LC-MS/MS” value on EthA is “in supernatants from Rv3094c and ethA overexpression strains declined over time”; on Rv3094c [1] it was “Rv3094c must be a monooxygenase that can directly sulfoxidise ethionamide, forming ETH-SO”. On Rv3094c [2], the X-ray crystallography result was “in complex with FMN (Rv3094c-FMN; Supplementary Fig. 4b) and ethionamide (Rv3094c-FMN-ETH”.
For `Cc1cc2nc3c(=O)[nH]c(=O)nc-3n(C[C@H](O)[C@H](O)[C@H](O)COP(=O)(O)O)c2cc1C` [flavin mononucleotide], the X-ray crystallography result at Rv3094c [2] was “Rv3094c in complex with FMN (Rv3094c-FMN; Supplementary Fig. 4b)”.

B1: Rv3094c (enzyme)
chain: NQSETEIEILAEKIARWARARSAEIERDRRLPDELVTRLREAGLLRATMPREVAAPELAPGRALRCAEAVARGDASAGWCVSIAITSALLVAYLPARSREEMFGGGRGVAAGVWAPRGTARSVDGGVVVSGRWPFCSGINHADIMFAGCFVDDRQVPSVVALNKDELQVLDTWHTLGLRGTGSHDCVADDVFVPADRVFSVFDGPIVDRPLYRFPVFGFFALSIGAAALGNARAAIDDLVELAGGKKGLGSTRTLAERSATQAAAATAESALGAARALFYEVIEAAWQVSHDAEAVPVTMRNRLRLAATHAVRTSADVVRSMYDLAGGTAIYDNAPLQRRFRDAFTATAHFQVNEASRELPGRVLLDQPADVSML
notes: also called apo-Rv3094c; Rv3094c-FMN
With B1, in data set [3], the “stoichiometry N” value was 4.
